Test results as given in PMC12452389, “Arginine-Derived Cationic Surfactants Containing Phenylalanine and Tryptophan: Evaluation of Antifungal Activity, Biofilm Eradication, Cytotoxicity, and Ecotoxicity” (Journal of Xenobiotics, 2025).
Values after ≈ are worked out from the molar mass of the structure shown. Like-named read-outs stand apart in the source and are kept apart here. Peptide text beside a SMILES is read from it. * marks the point of attachment. Lauroyl = CCCCCCCCCCCC(=O)*

Assays:
Daphnia magna = test: Acute toxicity, immobilization test; assay type: in vivo; conditions: Daphnia magna, 48 h
Protocol: Aquatic toxicity evaluation was performed using Daphnia magna following established protocols. This bioassay method employs laboratory-cultured freshwater microcrustaceans to evaluate surfactant toxicity in aquatic environments. Test organisms were utilized during their initial 24 h life stage to ensure consistency. The endpoint measurement focused on mobility impairment, specifically the loss of swimming capability after gentle stimulation lasting 15 s. Testing conditions included controlled water chemistry parameters: pH maintained at 8.0, calcium-to-magnesium ratio of 4:1, and total hardness of 250 mg/L as CaCO3. All experiments were conducted under dark conditions at 20 °C. The experimental design incorporated ten test concentrations for each surfactant compound, distributed in geometric progression. Each concentration level included 20 Daphnia specimens distributed across four replicate groups of five organisms each. Mobility assessment occurred at 48 h post-exposure, with immobilization percentages plotted against concentration using probability–logarithmic scaling.

[1] = design: method as in PMID 36559096; conditions: conductivity values; cited from earlier work
Vibrio fischeri = test: Luminescence reduction test; assay type: cell-based; conditions: Aliivibrio fischeri, 0.25 h; Vibrio fischeri bioluminescence, 15 min of exposure; 95% confidence intervals in parentheses
Protocol: Ecotoxicological assessment of cationic surfactants was conducted using the Vibrio fischeri luminescent bioassay. This method relies on the measurement of decreased bioluminescent output from marine bacteria following contact with potentially toxic substances. Regression analysis was used to determine the concentration of the compound that caused a 50% reduction (EC50) in the amount of light emitted by the bacteria. The stated toxicity statistics given are based on the bacteria being exposed to the ionic liquid solution for 15 min at 15 °C.

[2] = system: Candida rugosa ATCC 10571; test: MIC broth microdilution; assay type: cell-based; conditions: C. rugosa; for MIC: Diutina rugosa, ATCC10571, read-out: MIC
Protocol: (§1) The antimicrobial activity of these compounds was assessed against selected yeast and bacterial strains: Candida albicans ATCC 90028 (CA9), Candida rugosa ATCC 10571 (CR), Candida glabrata ATCC 66032 (CG), Candida parapsilosis ATCC 22019 (CP), Candida tropicalis ATCC 7349 (CT), Candida auris ATCC 21092 (CA), and Cyberlindnera jadinii ATCC 60459. Frozen yeast stocks were plated on Sabouraud agar (SBA) and incubated at 30 °C for 24 h. Three to four colonies from each strain were then suspended in RPMI 1640 (Roswell Park Memorial Institute medium, Sigma- Aldrich, Merck, Darmstadt, Germany) to prepare bacterial dispersions of ~1.5 × 10^6 CFU/mL.
(§2) A broth microdilution assay was used to calculate MIC values. Twofold serially diluted compounds in RPMI 1640 medium (from 256 to 2 μg/mL), were dispensed (100 μL per well) into a 96-well plate. Then, 100 μL of a yeast starter culture was added to each well to reach a final inoculum of 7.5 × 10^5 CFU/mL. Wells containing only nutrient broth without the tested surfactant served as growth controls. Microbial growth was assessed by turbidity, which reflects increases in biomass and cell count. […] To confirm the obtained MICs, 20 μL of 0.015% (w/v) resazurin was dispensed to each well and incubated for 3 h at 30 °C. Metabolic activity was evidenced by a color change from blue to pink, thereby confirming the MIC value.

[3] = system: Candida glabrata ATCC 66032; test: MIC broth microdilution; assay type: cell-based; conditions: for MIC: Nakaseomyces glabratus, read-out: MIC
Protocol: as §1, §2

[4] = system: Candida albicans ATCC 90028; test: MIC broth microdilution; assay type: cell-based; conditions: C. albicans; for MIC: Candida albicans, ATCC90028, read-out: MIC
Protocol: as §1, §2

[5] = system: Cyberlindnera jadinii ATCC 60459 (C. jardinii); test: MIC broth microdilution; assay type: cell-based; conditions: for Selectivity Index (HC50/MIC): C. jardini; for MIC: Williopsis jadinii
Protocol: as §1, §2

Candida auris ATCC 21092 = test: MIC broth microdilution; assay type: cell-based; conditions: C. auris; for MIC: Candidozyma auris, ATCC21092, read-out: MIC
Protocol: as §1, §2

[6] = system: Candida tropicalis ATCC 7349; test: MIC broth microdilution; assay type: cell-based; conditions: C. tropicalis; for MIC: Candida tropicalis, ATCC7349, read-out: MIC
Protocol: as §1, §2

[7] = system: Candida parapsilosis ATCC 22019; test: MIC broth microdilution; assay type: cell-based; conditions: C. parapsilosis; for MIC: Lodderomyces parapsilosis, ATCC22019, read-out: MIC
Protocol: as §1, §2

erythrocytes = test: Hemolytic activity assay; assay type: cell-based; conditions: rabbit erythrocytes
Protocol: Fresh rabbit blood was obtained from the Animal Facility of the CID-CSIC (Research and Development Center, Spanish National Research Council, Barcelona, Spain). Sample collection was conducted in strict compliance with the bioethical guidelines established under Spanish legislation. Erythrocytes were isolated by centrifugation (3000 rpm/10 min). The supernatant was discarded, and the erythrocytes were washed three times with PBS (phosphate-buffered saline, pH 7.4) and then resuspended in PBS at a concentration of 8 × 10^9 cells/mL. Subsequently, varying volumes of a concentrated surfactant solution were added to Eppendorf tubes containing 25 μL of erythrocyte suspension. PBS was then added to bring the total volume to 1 mL. The samples were gently shaken for 10 min at room temperature and centrifuged at 10,000 rpm for 5 min. Hemolysis was evaluated by measuring the absorbance of the supernatant at 540 nm and comparing it to that of a 100% hemolysis control (erythrocytes treated with distilled water). The HC50, defined as the surfactant concentration that induces 50% hemolysis, was determined from the concentration–response curves: % hemolysis= Abstest compound/AbsBasal haemolytic activity ×100

[8] = Surface tension, pendant drop tensiometer (cmc, γc); assay type: physicochemical; conditions: for cmc: from surface tension
Protocol: Surface tension was measured using a custom-built pendant drop tensiometer, as described in detail in reference. Briefly, a droplet of surfactant solution is formed at the tip of a straight-cut Teflon tube. The image of the droplet is captured using a webcam, and its shape is analyzed by fitting the droplet profile to the Laplace–Young equation [14], To minimize evaporation, all measurements were conducted in a saturated humid atmosphere. The use of this technique is especially well-suited for cationic surfactants because it helps to mitigate complications related to surface adsorption. Critical micelle concentration values (cmc) were determined by finding the intersection of the linear fits before and after the break in the curves.

[9] = ATCC66032, 24 h, C. glabrata, RPMI 1640, 24 h, 30 °C
[10] = ATCC66032, C. glabrata, value in parentheses

CCCCCCCCCCCCCCNC(=O)C(CCCNC(=N)N)NC(=O)C(N)Cc1ccccc1 (stereo not shown) [PANHC14]
EC50 (Daphnia magna): 0.71 µg/mL (≈ 1.37 µM) | cmc Cond [1]: 0.7 mM | EC50 (Vibrio fischeri): 1.8 µg/mL (≈ 3.48 µM) | Selectivity Index (HC50/MIC) ([2]; Table S2): 1.2 | MIC ([2]; RPMI 1640, 24 h, 30 °C): 16 µg/mL | MIC ([2]; value in parentheses): 27 µM | Selectivity Index (HC50/MIC) ([3]; C. glabrata, Table S2): 2.4 | MIC [3, 9]: 8 µg/mL | MIC [3, 10]: 14 µM | Selectivity Index (HC50/MIC) ([4]; Table S2): 1.2 | MIC ([4]; RPMI 1640, 24 h, 30 °C): 16 µg/mL | MIC ([4]; value in parentheses): 27 µM | Selectivity Index (HC50/MIC) ([5]; Table S2): 1.2 | MIC ([5]; ATCC60459, C. jardinii, RPMI 1640, 24 h, 30 °C, read-out: MIC): 16 µg/mL | MIC ([5]; ATCC60459, C. jardinii, value in parentheses, read-out: MIC): 27 µM | Selectivity Index (HC50/MIC) (Candida auris ATCC 21092; Table S2): 1.2 | MIC (Candida auris ATCC 21092; RPMI 1640, 24 h, 30 °C): 16 µg/mL | MIC (Candida auris ATCC 21092; value in parentheses): 27 µM | Selectivity Index (HC50/MIC) ([6]; Table S2): 2.4 | MIC ([6]; RPMI 1640, 24 h, 30 °C): 8 µg/mL | MIC ([6]; value in parentheses): 14 µM | Selectivity Index (HC50/MIC) ([7]; Table S2): 2.4 | MIC ([7]; RPMI 1640, 24 h, 30 °C): 8 µg/mL | MIC ([7]; value in parentheses): 14 µM | HC50 (erythrocytes; 10 min, room temperature): 20 ± 0.5 µg/mL | HC50 (erythrocytes; value in parentheses): 34 ± 0.8 µM | γc (surface tension at the cmc) [8]: 28.7 ± 1.5 mNm^−1 | cmc [8]: 0.35 mM

CCCCCCCCCCCC(=O)NC(Cc1ccccc1)C(=O)NC(CCCNC(=N)N)C(=O)OC (stereo not drawn) [C12PAM] (Lauroyl-Phe-Arg-OMe; configuration not given here)
cmc Cond [1]: 1.2 mM | Selectivity Index (HC50/MIC) ([2]; Table S1): 6 | MIC ([2]; RPMI 1640, 24 h, 30 °C): 4 µg/mL | MIC ([2]; value in parentheses): 7 µM | Selectivity Index (HC50/MIC) ([3]; C. glabrata, Table S1): 1.4 | MIC [3, 9]: 16 µg/mL | MIC [3, 10]: 29 µM | Selectivity Index (HC50/MIC) ([4]; Table S1): 1.4 | MIC ([4]; RPMI 1640, 24 h, 30 °C): 16 µg/mL | MIC ([4]; value in parentheses): 29 µM | Selectivity Index (HC50/MIC) ([5]; Table S1): 0.4 | MIC ([5]; ATCC60459): 116 µM | MIC ([5]; ATCC60459, 24 h): 64 µg/mL | Selectivity Index (HC50/MIC) (Candida auris ATCC 21092; Table S1): 0.7 | MIC (Candida auris ATCC 21092; RPMI 1640, 24 h, 30 °C): 32 µg/mL | MIC (Candida auris ATCC 21092; value in parentheses): 58 µM | Selectivity Index (HC50/MIC) ([6]; Table S1): 1.4 | MIC ([6]; RPMI 1640, 24 h, 30 °C): 16 µg/mL | MIC ([6]; value in parentheses): 29 µM | Selectivity Index (HC50/MIC) ([7]; Table S1): 1.4 | MIC ([7]; RPMI 1640, 24 h, 30 °C): 16 µg/mL | MIC ([7]; value in parentheses): 29 µM | HC50 (erythrocytes; 10 min, room temperature): 23 ± 0.8 µg/mL | HC50 (erythrocytes; value in parentheses): 42 ± 1.5 µM | γc (surface tension at the cmc) [8]: 29.5 ± 2.7 mNm^−1 | cmc [8]: 0.7 mM

CCCCCCCCCCCC(=O)NC(CCCNC(=N)N)C(=O)OC (stereo not shown) [C12AM]
EC50 (Daphnia magna): 4.4 µg/mL (≈ 11.9 µM) | cmc Cond [1]: 6 mM | EC50 (Vibrio fischeri): 1.9 µg/mL (≈ 5.13 µM) | Selectivity Index (HC50/MIC) ([2]; Table S1): 1.7 | MIC ([2]; RPMI 1640, 24 h, 30 °C): 64 µg/mL | MIC ([2]; value in parentheses): 156 µM | Selectivity Index (HC50/MIC) ([3]; C. glabrata, Table S1): 7 | MIC [3, 9]: 16 µg/mL | MIC [3, 10]: 39 µM | Selectivity Index (HC50/MIC) ([4]; Table S1): 3.4 | MIC ([4]; RPMI 1640, 24 h, 30 °C): 32 µg/mL | MIC ([4]; value in parentheses): 78 µM | Selectivity Index (HC50/MIC) ([5]; Table S1): 1.7 | MIC ([5]; ATCC60459): 156 µM | MIC ([5]; ATCC60459, 24 h): 64 µg/mL | Selectivity Index (HC50/MIC) (Candida auris ATCC 21092; Table S1): 0.9 | MIC (Candida auris ATCC 21092; RPMI 1640, 24 h, 30 °C): 128 µg/mL | MIC (Candida auris ATCC 21092; value in parentheses): 312 µM | Selectivity Index (HC50/MIC) ([6]; Table S1): 14 | MIC ([6]; RPMI 1640, 24 h, 30 °C): 8 µg/mL | MIC ([6]; value in parentheses): 19 µM | Selectivity Index (HC50/MIC) ([7]; Table S1): 7 | MIC ([7]; RPMI 1640, 24 h, 30 °C): 16 µg/mL | MIC ([7]; value in parentheses): 39 µM | HC50 (erythrocytes; 10 min, room temperature): 109 ± 0.6 µg/mL | HC50 (erythrocytes; value in parentheses): 270 ± 1.7 µM | γc (surface tension at the cmc) [8]: 29.5 ± 1.5 mNm^−1 | cmc [8]: 1.7 mM
